Measured values: patent US20220251085A1, “CYSTEINE BINDING COMPOSITIONS AND METHODS OF USE THEREOF” (University of Virginia Patent Foundation, priority 2019, published 2022)

How the values were obtained:
[1] = HPLC assay for profiling solution reactivity and stability of purine fragments (probes) with amino acid mimetics; format: physicochemical; settings: for reaction with butanethiol: cysteine mimetic
Protocol: HPLC assay for profiling solution reactivity and stability of purine fragments: The following reagents were prepared and stored on ice prior to use. 0.1 molar (M) solution of caffeine in acetonitrile, 1.0 M solution of amino acid mimetic (butanethiol—cysteine mimetic; n-butylamine—lysine mimetic; p-cresol—tyrosine mimetic; propionamide-asparagine/glutamine mimetic; butyric acid—aspartic/glutamic acid mimetic), tetramethylguanidine (TMG), 1 M acetic acid (HOAc) in acetonitrile (ACN) and 10 mM solution of purine fragment in ACN mixture. 500 μL of fragment solution were transferred to a dram vial on ice. To the mixture, 5.5 μL of TMG and 5.5 μL of respective amino acid mimetic were added and solutions were stirred on ice for 6 h. To monitor reactivity, 50 μL aliquots were removed at indicated time points and quenched with 10 μL of a 1:1 mixture of caffeine and HOAc. Samples were injected (1 μL) and analyzed by reverse-phase HPLC on a Shimadzu 1100 Series spectrometer (Shimadzu Corporation, Kyoto, Japan) with UV detection at 254 nm. Reaction progress was evaluated by monitoring consumption of starting material (purine fragment) normalized to caffeine standard. Chromatographic separation was performed using a Phenomenex Kinetex C18 column (2.6 μm, 50×4.6 mm; Phenomenex, Torrance, Calif., United States of America). Mobile phases A and B were composed of H2O+0.1% HOAc and ACN+0.1% HOAc, respectively. […] All purine fragment peak AUCs used for calculations were normalized to caffeine standard AUCs at respective time points to account for run-to-run variations by HPLC. The amount of purine fragment consumed (% starting material) was plotted as a function of time.
Discussion: An HPLC assay for determining the reactivity of the purine-based probes with mimetics of amino acid residues was performed. […] Reaction progress was monitored by monitoring the disappearance of starting material and appearance of product via HPLC.

DM93 cells = assay: Live cell activity of purine probes, gel-based (CuAAC rhodamine-azide, in-gel fluorescence); settings: for labeling profile in live cells: DM93 cells, 25 μM, 4 hours
Protocol: Live Cell Activity Method: DM93 cells were grown at 37° C. in 5% CO2 until 90% confluent. Once confluent cells were washed with serum free media and treated with halogenated purine probes at a final concentration of 25 μM (unless stated) for 4 hours (unless stated). Cells were then scraped and washed 3× with cold PBS and lysed in PBS+protease inhibitor. Lysates were spun at 100,000×g for 45 minutes. Halogen probe-modified proteins in soluble fractions were visualized by conjugating rhodamine-azide using copper-catalyzed azide-alkyne cycloaddition (CuAAC; 1 hour, room temperature), subjected to SDS-PAGE, and detected by in-gel fluorescence scanning. SDS-PAGE gels were also stained with Coomassie brilliant blue to determine protein load. All samples were loaded with equivalent amounts of protein. Thus, changes in purine probe labeling is not due to loading of different proteome amounts.

[2] = system: DM93 cells lysates (soluble fractions); assay: Lysate activity of purine probes, gel-based (in-gel fluorescence); format: biochemical; settings: for protein labeling activity in lysates: DM93 soluble fractions, 25 μM, 2 hrs, 37° C.
Protocol: Lysate Activity Method: DM93 cells were grown at 37° C. in 5% CO2 until 90% confluent. Once confluent, cells were scraped and washed 3× times with cold PBS and lysed in PBS+protease inhibitor. Lysates were spun at 100,000×g for 45 minutes. Soluble fractions were treated with 25 μM of halogenated purine probes (unless stated) for 2 hrs (unless stated) at 37° C. Purine probe modified proteins were conjugated to rhodamine-azide by CuAAC, subjected to SDS-PAGE analysis, and detected by in-gel fluorescence scanning. SDS-PAGE gels were stained with Coomassie brilliant blue to determine protein load.

[3] = target: T1, human eEF-Sec (Uniprot ID P57772) (Homo sapiens, UniProt P57772); assay: Purine probe labeling of recombinant eEF-Sec expressed in HEK293T cells, gel-based; format: cell-based; settings: 50 μM probe, live cells, 0.5 to 2 hours
T1 construct: FLAG; expressed in transfected cells; host or cells: HEK293T
T1 sequence (P57772 1-596): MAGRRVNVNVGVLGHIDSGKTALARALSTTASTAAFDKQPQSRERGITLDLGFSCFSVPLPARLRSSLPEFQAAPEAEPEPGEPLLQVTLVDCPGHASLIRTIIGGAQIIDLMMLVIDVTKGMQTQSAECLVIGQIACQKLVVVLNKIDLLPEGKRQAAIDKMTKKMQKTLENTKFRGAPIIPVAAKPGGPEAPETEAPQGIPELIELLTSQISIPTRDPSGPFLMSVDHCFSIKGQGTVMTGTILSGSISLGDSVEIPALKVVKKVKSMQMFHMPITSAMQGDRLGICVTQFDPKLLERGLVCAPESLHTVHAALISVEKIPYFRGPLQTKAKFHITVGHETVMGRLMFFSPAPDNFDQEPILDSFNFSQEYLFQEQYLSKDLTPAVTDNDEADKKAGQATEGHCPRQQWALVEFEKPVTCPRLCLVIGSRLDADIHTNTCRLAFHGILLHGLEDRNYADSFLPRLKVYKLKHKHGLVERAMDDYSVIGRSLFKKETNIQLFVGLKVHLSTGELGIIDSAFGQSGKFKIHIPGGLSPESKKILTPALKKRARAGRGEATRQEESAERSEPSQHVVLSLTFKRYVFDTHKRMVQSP
Protocol: Methods: HEK293T cells were grown at 37° C. in 5% CO2 until 40% confluent. Recombinant human eEF-Sec (Uniprot ID P57772) was expressed by transient transfection for 48 hours. […] Lysates were spun at 100,000×g for 45 minutes. […] Purine probe modified proteins were conjugated to rhodamine-azide by CuAAC, subjected to SDS-PAGE analysis, and detected by in-gel fluorescence scanning. Comparison of non-transfected (Mock) and transfected proteomes was used to identify the recombinant eEF-Sec purine probe-labeled band. […] Reduction in fluorescent signals from purine probe labeling was indicative of Pi ligand inhibitory activity. Mut represents eEF-Sec mutant where cysteine residue 442 is mutated to alanine (C442A).
SDS-PAGE gels were transferred to nitrocellulose membrane. Nitrocellulose blots were blocked with 5% BSA. Blots were washed five times with TBS-T. Recombinant protein expression was detected using an anti-FLAG primary antibody (1:1,000) followed by fluorescent secondary antibody (1:10,000) to determine if there was equivalent protein expression across different treatment conditions.

reaction with butanethiol ([1]; on ice 6 h)	reactivity with lysine mimetic ([1]; n-butylamine, on ice 6 h)	labeling of recombinant eEF-SEC [3]	Compound	labeling profile in live cells (DM93 cells)	time dependence of labeling (DM93 cells; live cells)	protein labeling activity in lysates [2]	time dependence of labeling ([2]; proteomes)	solution-based reactivity with amino acid mimetics ([1]; HPLC, % starting material consumed, on ice 6 h)	reaction kinetics compared to N9 counterparts ([1]; butanethiol, versus Pu-2, Pu-4, Pu-10)	reactivity towards nucleophilic attack, N7 versus N9 tautomer ([1]; compared with Pu-2)	reactivity of N7 versus N9 tautomers (DM93 cells; live DM93 cells)	concentration dependence of labeling (DM93 cells; live cells)	reactivity of N7 versus N9 tautomers ([2]; lysates)	concentration dependence of labeling ([2]; proteomes)
react with butanethiol	mild lysine (Lys) reactivity	labeled in a time dependent manner	C#CCn1cnc2c(Cl)nc(Cl)nc21 [Pu-2, 2,6-Dichloro-9-(prop-2-yn-1-yl)-9H-purine]	robust labeling profiles	react in a time dependent manner	highest protein labeling activity	time dependence in protein labeling	–	–	–	–	–	–	–
react with butanethiol	–	labeled in a time dependent manner	C#CCn1cnc2nc(Cl)nc(Cl)c21 [Pu-1, 2,6-Dichloro-7-(prop-2-yn-1-yl)-7H-purine]	robust labeling profiles	react in a time dependent manner	highest protein labeling activity	time dependence in protein labeling	modifies cysteine (Cys) and tyrosine (Tyr) amino acid mimetics	accelerated reaction kinetics	more reactive towards nucleophilic attack	more reactive	concentration dependent labeling	more reactive	concentration dependent labeling of proteomes
